Peptide text beside a SMILES is read from it. * marks the point of attachment. pNA = O=[N+]([O-])c1ccc(N*)cc1; Cbz = O=C(OCc1ccccc1)*
Test system: cuscutain
Assay: colorimetric release of para-nitroaniline at […] nm; Hanes-Woolf plot
Assay type: biochemical, Cuscuta reflexa
Details: pH 7.5; 30 °C (50 mM Tris, 300 mM NaCl) or 37 °C (0.1 M Na-citrate, 20% ethanol), both printed

## N=C(N)NCCC[C@H](NC(=O)[C@H](Cc1ccccc1)NC(=O)OCc1ccccc1)C(=O)Nc1ccc([N+](=O)[O-])cc1 [Cbz-Phe-Arg-pNA] (Cbz-Phe-Arg-pNA)
  Km: 393 ± 20 µM
